# Experimental data from patent publication US20170014430A1, “Cycloartenol-Containing Composition” (KAO CORPORATION, priority 2014, published 2017).
# Marks after values point to notes of the source that are not given here.
# Key:
# [1] = biological target: T1, lipase from porcine pancreas (Sus scrofa, UniProt P00591); assay: Inhibitory action against lipase: amount of free fatty acid produced from bile acid micelles (artificial in vivo system); assay type: biochemical
# T1 construct: lipase from porcine pancreas [SIGMA]; purchased SIGMA; host or cells: porcine pancreas (tissue-derived preparation)
# T1 sequence (P00591 1-450): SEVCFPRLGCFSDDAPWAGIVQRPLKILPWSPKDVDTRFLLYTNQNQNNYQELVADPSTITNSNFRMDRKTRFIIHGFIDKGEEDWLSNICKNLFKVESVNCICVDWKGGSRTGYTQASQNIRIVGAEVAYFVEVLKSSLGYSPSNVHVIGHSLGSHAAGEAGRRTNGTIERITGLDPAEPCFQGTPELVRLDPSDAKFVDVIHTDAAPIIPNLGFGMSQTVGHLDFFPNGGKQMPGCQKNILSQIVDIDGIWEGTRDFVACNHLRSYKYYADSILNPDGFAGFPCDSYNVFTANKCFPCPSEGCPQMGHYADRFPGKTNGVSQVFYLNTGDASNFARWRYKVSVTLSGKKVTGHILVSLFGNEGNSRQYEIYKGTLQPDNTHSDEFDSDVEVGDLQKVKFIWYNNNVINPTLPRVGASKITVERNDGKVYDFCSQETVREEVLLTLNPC
# Description: In this example, an emulsification liquid containing bile acid micelles was produced as an artificial in vivo system. In the artificial in vivo system, the inhibitory action of the test samples against the lipolytic activity by lipase in vivo was evaluated by measuring the amount of free fatty acid collected from the bile acid micelles after application of lipase in the presence of the test samples.
# 10 g of olive oil (Wako Pure Chemical Industries, Ltd.) was added to each test sample (30 mg in terms of CA amount), which was heated at 70° C. in an oven for 20 minutes to be dissolved.
# 0.92 g of olive oil in which each test sample was dissolved, 40 mg of egg yolk lecithin (Wako Pure Chemical Industries, Ltd.), and 24 mL of the bile acid solution were added to a 50-mL tube, followed by cooling with ice, and thereafter emulsification was performed thereon using an ultrasonic homogenizer. […] Thereafter, 2.5 mL of a 0.1% lipase solution (0.1N TRIS-HCl buffer solution of lipase from porcine pancreas [SIGMA]) was added thereto, which was mixed with stirring using a vortex mixer for 10 seconds, followed by incubation in a water bath at 37° C. for 10 minutes. The tube was moved into an oil bath at 70° C., was subjected to enzyme inactivation for 15 minutes, and thereafter was mixed again with stirring using a vortex mixer to collect 100 μL.
# The amount of free fatty acid in the reaction solution was determined using NEFA-C Test wako. That is, 800 μL of a coloring reagent A was added to 100 μL of the sample, which was stirred using a vortex mixer, and thereafter was heated at 37° C. for 10 minutes. After cooling, 1600 μL of a coloring reagent B was added thereto, followed by stirring, and was heated again at 37° C. for 10 minutes. This was subjected to an ultraviolet/visible spectrophotometer to measure an absorbance at 550 nm. Thus, the amount of free fatty acid produced was obtained. Each reaction solution was measured 3 times or 4 times by the same operation.
# [2] = in vivo; Patent Literatures 9 to 11; cited from earlier work
# blood GIP = assay: Inhibitory action against blood GIP increase, intragastric administration test of starch paste sample; assay type: in vivo, C57BL/6J mice; conditions: Table 6, AUC for 120 minutes, relative value with control administration group taken as 100, 175 μM in terms of CA
# Description: For experiments, C57BL/6J mice (male, 8 week-old, manufactured by CLEA Japan, Inc.) grouped so that each group has the same body weight (N=16/group) were used and were subjected to the tests.
# Starch (waxy corn, Amioca) was dissolved in distilled water in an amount 4 times the amount of the starch and gelatinized (pregelatinized) by autoclaving (at 121° C. under a pressure of 2 atmospheres for 20 minutes). Each of the test samples (Sample Nos. 2 to 4 and 8) shown in Table 4 was emulsified in triolein containing egg yolk lecithin and albumin to obtain an emulsified oil. […]
# The starch paste sample containing the test sample was intragastrically administered to a mouse fasted for 20 hours, and part of the blood was collected from the orbital venous plexus over time (before the administration, and at 10, 30, 60, and 120 minutes after the administration). […] The collected blood was subjected to centrifugation, and thereafter the blood plasma was prepared and measured using GIP ELISA kit (EMD Millipore Corporation). The blood GIP amount of each sample after the administration was calculated by measuring the maximum value (Cmax) and the area under the concentration curve (AUC) for 120 minutes. […]
smiles,measurement,setting,value
"CC(C)=CCC[C@@H](C)[C@H]1CC[C@@]2(C)[C@@H]3CC[C@H]4C(C)(C)[C@@H](O)CC[C@@]45C[C@@]35CC[C@]12C [Purified product of cycloartenol, cycloartenol]",amount of free fatty acid produced compared to the control / lipase inhibitory activity (in words),[1]; Example 1,reduced
same,"Amount of free fatty acid produced, Average","[1]; Example 1, test sample 30 mg in terms of CA in 10 g olive oil, lipase 37° C. 10 minutes, NEFA-C Test wako, absorbance 550 nm, control (olive oil alone) 0.376",0.276
same,amount of free fatty acid produced compared with the control / lipase inhibitory activity (in words),[1]; Example 2,reduced
same,"Amount of free fatty acid produced, Average","[1]; Example 2, same manner as Example 1, control (olive oil alone) 0.296",0.238
same,inhibitory activity against GIP increase,[2],exerts inhibitory activities
same,inhibitory activity against postprandial blood glucose increase,[2],exerts inhibitory activities
same,GIP (AUC),blood GIP,81 *
